Here are results for 1 molecule from patent publication US7544710B2 (Les Laboratoires Servier, priority 2002, dated 2009).

Molecules are shown by their SMILES.

The test system of the data set is animals. Nature of the data set: In vivo study with a different strontium salt (strontium chloride).

Take `[Cl-].[Cl-].[Sr+2]` [strontium chloride]: the “superficial haemorrhagic lesions in the animals treated” value is “very rapidly caused superficial haemorrhagic lesions”.
